According to ChEMBL document CHEMBL3044538, “QSAR Analysis of BABQ compounds via calculated molecular descriptors” (Med Chem Res, 2006):

Legend:
[1] = tested on: L1210; experiment: Cytotoxicity against Mus musculus (mouse) L1210 cells; assay type: functional
[2] = tested on: B16; experiment: Antitumor activity against Mus musculus (mouse) B16 cells xenografted in rat; assay type: functional
[3] = species on record: Rattus norvegicus; experiment: Toxicity in Rattus norvegicus (rat); assay type: organism-based; details: in vivo
[4] = tested on: L1210; experiment: Antitumor activity against Mus musculus (mouse) L1210 cells xenografted in rat; assay type: functional

`CC1=C(N2CC2C)C(=O)C(CCOC(N)=O)=C(N2CC2C)C1=O` (centres undefined) was tested, and the “log(1/MIC)” value [1] was -0.1.

For `O=C1C(N2CCCC2)=C(N2CC2)C(=O)C(N2CCCC2)=C1N1CC1`, the “log(1/MIC)” value [2] was 2.4 and the “log(1/MIC)” value [1] was -0.3.

For `O=C1C(F)=C(N2CC2)C(=O)C(N2CC2)=C1N1CC1`, the “log(1/LD50)” value [3] was 1.62.

For `CC1=C(C)C(=O)C(N2CC=CC2)=CC1=O`, the “log(1/MIC)” value [1] was -0.7.

For `CCC1=C(N2CC2)C(=O)C(Br)=C(N2CC2)C1=O`, the “log(1/MIC)” value [2] was 2.6 and the “log(1/LD50)” value [3] was 1.39.

With `O=C1C(N2CC2)=C(N2CC2)C(=O)C(N2CC2)=C1N1CC1` the “log(1/MIC)” value [1] was 0.9.

For `CC1=C(N2CC2C)C(=O)C(Br)=C(N2CC2C)C1=O` (centres undefined), the “log(1/LD50)” value [3] was 1.59.

`O=C1C=C(N2CCCC2)C(=O)C=C1N1CCCC1` was tested, and the “log(1/MIC)” value [1] was -1.6.

In the case of `O=C1C=C(N2CC2)C(=O)C(N2CC2)=C1N1CC1` [TRIAZIQUONE], the “log(1/MIC)” value [2] is reported as 3.8 and the “log(1/LD50)” value [3] is reported as 2.66.

For `CC1=C(C)C(=O)C(N2CCCC2)=CC1=O`, the “log(1/MIC)” value [1] was -1.7.

In the case of `CCOC(=O)NC1=CC(=O)C(NC(=O)OCC)=CC1=O`, the “log(1/MIC)” value [1] is reported as 0.09.

With `CC1=C(N2C(C)C2C)C(=O)C(Br)=C(N2C(C)C2C)C1=O` (centres undefined) the “log(1/MIC)” value [4] was 0.69, the “log(1/LD50)” value [3] was 0.63 and the “log(1/MIC)” value [1] was -0.1.

For `O=C1C(Br)=C(N2CC2)C(=O)C(Br)=C1N1CC1`, the “log(1/MIC)” value [1] was 0.35.

`COC1=C(C)C(=O)C(N2CCCC2)=CC1=O` was tested, and the “log(1/MIC)” value [1] was -1.6.

In the case of `CC1=C(N2CC2)C(=O)C(Br)=C(N2CC2)C1=O`, the “log(1/LD50)” value [3] is reported as 1.44.

With `CC1CN1C1=C(F)C(=O)C(N2CC2C)=C(N2CC2C)C1=O` (centres undefined) the “log(1/LD50)” value [3] was 1.45.

For `CCC1=C(N2CC2)C(=O)C(C)=C(N2CC2)C1=O`, the “log(1/LD50)” value [3] was 1.46 and the “log(1/MIC)” value [1] was -0.3.

`CNC1=C(N2CC2)C(=O)C(NC)=C(N2CC2)C1=O` was tested, and the “log(1/MIC)” value [2] was 3.14, the “log(1/MIC)” value [4] was 2.49 and the “log(1/MIC)” value [1] was 0.32.

For `COC(COC(N)=O)C1=C(N2CC2)C(=O)C(C)=C(N2CC2)C1=O` (centres undefined) [CARBOQUONE], the “log(1/LD50)” value [3] was 1.73.

In the case of `CC1CN1C1=CC(=O)C(N2CC2C)=CC1=O` (centres undefined), the “log(1/LD50)” value [3] is reported as 1.16.

For `O=C1C(F)=C(N2CC2)C(=O)C(F)=C1N1CC1`, the “log(1/MIC)” value [1] was -0.2.

For `COC1=C(N2CC2C)C(=O)C=C(N2CC2C)C1=O` (centres undefined), the “log(1/MIC)” value [2] was 2.27, the “log(1/MIC)” value [4] was 1.47 and the “log(1/LD50)” value [3] was 1.4. The “log(1/MIC)” value [1] was -0.5.

`NC(=O)OCCC1=C(N2CC2)C(=O)C(Br)=C(N2CC2)C1=O` was tested, and the “log(1/MIC)” value [4] was 2 and the “log(1/LD50)” value [3] was 1.05.

`O=C1C(NCCO)=C(N2CC2)C(=O)C(NCCO)=C1N1CC1` was tested, and the “log(1/MIC)” value [2] was 3.94, the “log(1/MIC)” value [4] was 3.39 and the “log(1/MIC)” value [1] was 0.42.

With `O=C1C=C(N2CC2)C(=O)C=C1N1CC1` the “log(1/LD50)” value [3] was 1.8.

In the case of `CC1=C(N2CC2)C(=O)C(CCO)=C(N2CC2)C1=O`, the “log(1/MIC)” value [2] is reported as 3.6 and the “log(1/LD50)” value [3] is reported as 1.39.

In the case of `CNC1=C(N2CC2C)C(=O)C(NC)=C(N2CC2C)C1=O` (centres undefined), the “log(1/MIC)” value [2] is reported as 2.33, the “log(1/MIC)” value [4] is reported as 2.19 and the “log(1/MIC)” value [1] is reported as -0.3.

In the case of `CC1CN1C1=C(Br)C(=O)C(N2CC2C)=C(Br)C1=O` (centres undefined), the “log(1/MIC)” value [1] is reported as 0.77.

For `CC1CN1C1=CC(=O)C(N2CC2C)=C(F)C1=O` (centres undefined), the “log(1/LD50)” value [3] was 1.5 and the “log(1/MIC)” value [1] was 1.49.

`O=C1C=C(N2CC=CC2)C(=O)C=C1N1CC=CC1` was tested, and the “log(1/MIC)” value [1] was -1.6.

With `CC1CN1C1=C(Cl)C(=O)C(N2CC2C)=C(Cl)C1=O` (centres undefined) the “log(1/MIC)” value [4] was 1.16 and the “log(1/MIC)” value [1] was -0.6.

With `O=C1C(Cl)=C(N2CC2)C(=O)C(Cl)=C1N1CC1` the “log(1/MIC)” value [1] was -0.3.

In the case of `COC1=C(N2CC2)C(=O)C(OC)=C(N2CC2)C1=O`, the “log(1/MIC)” value [1] is reported as 0.15.

With `CCOC(=O)NC1=C(N2CC2C)C(=O)C(NC(=O)OCC)=C(N2CC2C)C1=O` (centres undefined) the “log(1/LD50)” value [3] was 0.69 and the “log(1/MIC)” value [1] was -1.

For `CN(CCO)C1=C(N2CC2)C(=O)C(N(C)CCO)=C(N2CC2)C1=O`, the “log(1/MIC)” value [1] was 0.09.

For `CC1CN1C1=C(N2CCCC2)C(=O)C(N2CC2C)=C(N2CCCC2)C1=O` (centres undefined), the “log(1/MIC)” value [1] was -1.1.

With `CCOC(=O)NC1=C(N2CC2)C(=O)C(NC(=O)OCC)=C(N2CC2)C1=O` [DIAZIQUONE] the “log(1/LD50)” value [3] was 1.54 and the “log(1/MIC)” value [1] was -0.5.

`CC1=C(N2CC2)C(=O)C(CCOC(N)=O)=C(N2CC2)C1=O` was tested, and the “log(1/LD50)” value [3] was 1.99.
